Laboratory results taken from US11612601B1, “Targeting epidermal growth factor to treat vascular calcification” (THE FLORIDA INTERNATIONAL UNIVERSITY BOARD OF TRUSTEES, priority 2022, dated 2023).

Legend:
[1] = system: CKD mice; test: Serum EGFR level and serum TNAP activity in CKD mice; assay type: in vivo, mouse; details: 10 mg/kg daily, vs CKD
Protocol: Along with this calcifying diet, a group of mice (n=19) received daily tyrphostin AG1478 (10 mg/kg mouse, Millipore Sigma, T4182) via oral gavage. The remaining mice (n=19) received vehicle treatment (1% w/v, carboxymethylcellulose sodium salt, Sigma, C5678). For non-diseased controls, a third group of mice (n=12, 6 per biological sex) were fed a regular chow diet and received the vehicle for the final two weeks. During the oral gavage, animals were partially anesthetized using isoflurane (1%, Patterson Veterinary, 07-893-1389, in 2 L.min^−1 oxygen flow). […] At study endpoint, mice were anesthetized with isoflurane (1%, in 2 L.min^−1 oxygen flow) followed by retro-orbital bleeding for blood collection. Mice were then immediately euthanized by laceration of the diaphragm before tissue collection. […] For mice serum TNAP activity, the samples were diluted 1:20 and assessment was performed according to the manufacturer's protocol.

[2] = system: CKD mice; test: Femur X-ray CT bone thickness and bone volume fraction in CKD mice; assay type: in vivo, mouse
Protocol: Femurs were dissected from mice, wrapped in parafilm and imaged directly in a Nikon XT H 225 scanner (macro-CT, Nikon Metrology, Tring, UK). The raw transmission images were reconstructed using commercial image reconstruction software package (CT Pro 3D, Nikon Metrology, Tring, UK), which employs a filtered back-projection algorithm. The scan was performed using 80 kV beam energy, 70 μA beam current, and a power of 5.6 W. A PerkinElmer 1620 flat panel detector was used, with 200 μm pixel size. The resulting effective pixel size was 5 μm. The exposure time per projection was 0.5 s, and a total of 1601 projections were acquired, resulting in a scanning time of approximately 13 minutes per sample. Bone structural parameters, including thickness and volume fraction (the ratio of bone volume (BV) to total volume (TV)), for both cortical and trabecular regions were assessed using a plug-in module, BoneJ, in ImageJ (NIH, USA).

[3] = system: Primary human coronary artery vascular smooth muscle cells; test: VSMC osteogenic marker gene expression (qRT-PCR); assay type: cell-based; details: OS + 2.5 μM vs OS, 14 days
Protocol: Primary human coronary artery vascular smooth muscle cells, (VSMCs, ATCC, PCS-100-021) were cultured using vascular smooth muscle cell media and growth kit (ATCC, PCS-100-042). VSMCs (passage 4-6) were harvested using 0.05% trypsin-EDTA solution (Caisson Labs, TRL04) and seeded with a density of 26,320 cells.cm^-2 and incubated for 72 hours at 37° C., 5% CO2 with controlled humidity prior to treatment. […] OS media were supplemented with 10 mM β-glycerophosphate (Sigma, 13408-09-8), 0.1 mM L-ascorbic acid (Sigma, 113170-55-1), and 10 nM dexamethasone (Sigma, 50-02-2). To assess the role of EGFR inhibition, tyrphostin AG1478 (Millipore Sigma, T4182) was dissolved in vehicle (DMSO:Methanol, 1:1) and added to OS media to a final concentration of 2.5 μM. An equal volume of vehicle was added to the control and OS groups. […] On days 6, 13, 20, and 27 the media were replaced by an extracellular-vesicle-free (EV-free) media (ultracentrifuged for 15 hours at 100,000×g at 4° C. to remove background EVs common in the serum). After 24 hours, conditioned media were collected on days 7, 14, 21, and 28. […] To perform the quantitative real time polymerase chain reaction (qRT-PCR), Power SYBR Green RNA-to-CT 1-Step Kit (Applied Biosystems, 4391178) was used. […] The relative gene expression levels were calculated using comparative CT method, considering control groups as the reference. […]

In the case of `COc1cc2ncnc(Nc3cccc(Cl)c3)c2cc1OC` [AG1478, tyrphostin AG1478], the “serum TNAP activity” value ([1]; p=0.06) is reported as “did not significantly reduce”, the “level of serum EGFR” value ([1]; p=0.78) is reported as “no significant difference” and the “thickness of cortical bone” value ([2]; CKD mice treated vs CKD, p=0.004) is reported as “increased”. The “thickness of trabecular bone, metaphysical region” value ([2]; CKD mice treated vs CKD, p=0.02) was “increased”, the “thickness of trabecular bone, epiphyseal region” value ([2]; CKD mice treated vs CKD, p=0.04) was “increased” and the “bone volume fraction in trabecular bone, metaphysical region” value ([2]; compared to CKD animals, p=0.002) was “increased”. The “bone volume fraction in trabecular bone, epiphyseal region” value ([2]; compared to CKD animals, p=0.009) was “increased”, the “bone volume fraction in cortical bone” value ([2]; compared to CKD animals, p=0.25) was “did not significantly change” and the “Gene expression of osteogenic marker ALPL in VSMCs” value ([3]; p=0.1) was “no significant differences”. For the same compound, the “Gene expression of osteogenic marker RUNX2 in VSMCs” value ([3]; p=0.42) was “no significant differences”.
